{"source": "ChEMBL document CHEMBL3137667", "about": "“[Drug-induced liver injury; fourteenth updated edition of the bibliographic database of liver injuries and related drugs]” (Gastroenterol Clin Biol, 2004);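 as to Hepatotoxicity (association with vascular disease): count of indexed literature references reporting vascular liver injury in humans, e.g. peliosis hepatitis, hepatic veno-occlusive disease or Budd-Chiari syndrome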;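 as to Hepatotoxicity (benign tumour): value is a count of indexed literature references citing a benign tumour confirmed by histopathology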;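 as to Hepatotoxicity (choleostasis): human cholestatic liver injury, shown by histopathology or by peak ALT or AST elevation over alkaline phosphatase ratio below 2, value counts indexed literature reports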;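 as to Hepatotoxicity (chronic liver disease): chronic liver injury confirmed by histopathology or persistently raised serum aminotransferase activity beyond 6 months, value given as the count of indexed literature references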;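 as to Hepatotoxicity (cirrhosis): value is a count of indexed literature references reporting cirrhosis confirmed by histopathology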;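 as to Hepatotoxicity (cytolytic): human cytolytic liver injury, shown by histopathology or by a ratio above 5 of peak ALT or AST elevation to alkaline phosphatase elevation, value counts indexed references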;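 as to Hepatotoxicity (granulomatous hepatitis): value is a count of indexed literature references reporting granulomatous liver disease confirmed by histopathology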;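 as to Hepatotoxicity (malignant tumour): malignant tumour confirmed by histopathology, value gives the count of indexed literature references reporting it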;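 as to Hepatotoxicity (severe hepatitis): human clinical data: severe hepatitis, meaning potentially life-threatening liver failure or clinically observed cases, the value counts how many indexed literature references report it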;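 as to Hepatotoxicity (steatosis): steatosis confirmed by histopathology, value is the count of indexed references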", "key": {"[1]": {"settings": "human"}, "[2]": {"settings": "human", "remark": "listed apart in the source"}, "[3]": {"settings": "human", "remark": "listed apart in the source"}, "[4]": {"settings": "human, serum"}, "[5]": {"settings": "human", "remark": "listed apart in the source"}, "[6]": {"settings": "human", "remark": "listed apart in the source"}, "[7]": {"settings": "human", "remark": "listed apart in the source"}, "[8]": {"assay": "Highest frequency of acute liver toxicity observed during clinical trials, expressed as a percentage. [column '% AIGUE' in source]", "settings": "human"}, "[9]": {"settings": "human, serum, 4383 h"}, "[10]": {"settings": "human", "remark": "listed apart in the source"}, "[11]": {"settings": "human", "remark": "listed apart in the source"}, "[12]": {"settings": "human", "remark": "listed apart in the source"}, "[13]": {"assay": "Highest frequency of moderate liver toxicity observed during clinical trials, expressed as a percentage. [column '% BIOL' in source]", "settings": "human"}, "[14]": {"settings": "human, serum", "remark": "listed apart in the source"}}, "data": [{"smiles": "NS(=O)(=O)OCCCCCCCOS(N)(=O)=O", "values": [{"measurement": "Hepatotoxicity (malignant tumour)", "setting": "[1]", "value": 0}, {"measurement": "Hepatotoxicity (choleostasis)", "setting": "[2]", "value": 0}, {"measurement": "Hepatotoxicity (cytolytic)", "setting": "[3]", "value": 0}, {"measurement": "Hepatotoxicity (acute)", "setting": "[4]", "value": 0}, {"measurement": "Hepatotoxicity (cirrhosis)", "setting": "[5]", "value": 0}, {"measurement": "Hepatotoxicity (benign tumour)", "setting": "[6]", "value": 0}, {"measurement": "Hepatotoxicity (granulomatous hepatitis)", "setting": "[7]", "value": 0}, {"measurement": "Hepatotoxicity (acute)", "setting": "[8]", "value": 0, "unit": "%"}, {"measurement": "Hepatotoxicity (chronic liver disease)", "setting": "[9]", "value": 0}, {"measurement": "Hepatotoxicity (steatosis)", "setting": "[10]", "value": 0}, {"measurement": "Hepatotoxicity (association with vascular disease)", "setting": "[11]", "value": 0}, {"measurement": "Hepatotoxicity (severe hepatitis)", "setting": "[12]", "value": 0}, {"measurement": "Hepatotoxicity (moderate)", "setting": "[13]", "value": 25, "unit": "%"}, {"measurement": "Hepatotoxicity (moderate)", "setting": "[14]", "value": 2}]}, {"smiles": "CC[N+](C)(C/C=C/C1=C(C(=O)[O-])N2C(=O)[C@@H](NC(=O)/C(=N\\OCF)c3nsc(N)n3)[C@H]2SC1)CC(N)=O", "note": "(some centres undefined)", "values": [{"measurement": "Hepatotoxicity (malignant tumour)", "setting": "[1]", "value": 0}, {"measurement": "Hepatotoxicity (choleostasis)", "setting": "[2]", "value": 0}, {"measurement": "Hepatotoxicity (cytolytic)", "setting": "[3]", "value": 0}, {"measurement": "Hepatotoxicity (acute)", "setting": "[4]", "value": 0}, {"measurement": "Hepatotoxicity (cirrhosis)", "setting": "[5]", "value": 0}, {"measurement": "Hepatotoxicity (benign tumour)", "setting": "[6]", "value": 0}, {"measurement": "Hepatotoxicity (granulomatous hepatitis)", "setting": "[7]", "value": 0}, {"measurement": "Hepatotoxicity (acute)", "setting": "[8]", "value": 0, "unit": "%"}, {"measurement": "Hepatotoxicity (chronic liver disease)", "setting": "[9]", "value": 0}, {"measurement": "Hepatotoxicity (steatosis)", "setting": "[10]", "value": 0}, {"measurement": "Hepatotoxicity (association with vascular disease)", "setting": "[11]", "value": 0}, {"measurement": "Hepatotoxicity (severe hepatitis)", "setting": "[12]", "value": 0}, {"measurement": "Hepatotoxicity (moderate)", "setting": "[13]", "value": 37.5, "unit": "%"}, {"measurement": "Hepatotoxicity (moderate)", "setting": "[14]", "value": 51}]}, {"smiles": "CO/N=C(\\C(=O)N[C@@H]1C(=O)N2C(C(=O)O)=C(C)CS[C@H]12)c1csc(N)n1", "values": [{"measurement": "Hepatotoxicity (malignant tumour)", "setting": "[1]", "value": 0}, {"measurement": "Hepatotoxicity (choleostasis)", "setting": "[2]", "value": 0}, {"measurement": "Hepatotoxicity (cytolytic)", "setting": "[3]", "value": 0}, {"measurement": "Hepatotoxicity (acute)", "setting": "[4]", "value": 0}, {"measurement": "Hepatotoxicity (cirrhosis)", "setting": "[5]", "value": 0}, {"measurement": "Hepatotoxicity (benign tumour)", "setting": "[6]", "value": 0}, {"measurement": "Hepatotoxicity (granulomatous hepatitis)", "setting": "[7]", "value": 0}, {"measurement": "Hepatotoxicity (acute)", "setting": "[8]", "value": 0, "unit": "%"}, {"measurement": "Hepatotoxicity (chronic liver disease)", "setting": "[9]", "value": 0}, {"measurement": "Hepatotoxicity (steatosis)", "setting": "[10]", "value": 0}, {"measurement": "Hepatotoxicity (association with vascular disease)", "setting": "[11]", "value": 0}, {"measurement": "Hepatotoxicity (severe hepatitis)", "setting": "[12]", "value": 0}, {"measurement": "Hepatotoxicity (moderate)", "setting": "[13]", "value": 23.1, "unit": "%"}, {"measurement": "Hepatotoxicity (moderate)", "setting": "[14]", "value": 30}]}, {"smiles": "Cc1c(N)nc([C@@H](CC(N)=O)NC[C@@H](N)C(N)=O)nc1C(=O)N[C@@H](C(=O)N[C@@H](C)[C@H](O)[C@@H](C)C(=O)N[C@H](C(=O)NCCc1nc(-c2nc(C(=O)NCCCN(C)CCCN(Cc3ccc(OCc4ccccc4)c(OCc4ccccc4)c3)Cc3ccc(OCc4ccccc4)c(OCc4ccccc4)c3)cs2)cs1)[C@@H](C)O)C(O[C@H]1O[C@@H](CO)[C@H](O)[C@@H](O)[C@H]1O[C@H]1O[C@@H](CO)[C@@H](O)[C@H](OC(N)=O)[C@@H]1O)c1c[nH]cn1", "note": "(some centres undefined)", "values": [{"measurement": "Hepatotoxicity (malignant tumour)", "setting": "[1]", "value": 0}, {"measurement": "Hepatotoxicity (choleostasis)", "setting": "[2]", "value": 0}, {"measurement": "Hepatotoxicity (cytolytic)", "setting": "[3]", "value": 0}, {"measurement": "Hepatotoxicity (acute)", "setting": "[4]", "value": 0}, {"measurement": "Hepatotoxicity (cirrhosis)", "setting": "[5]", "value": 0}, {"measurement": "Hepatotoxicity (benign tumour)", "setting": "[6]", "value": 0}, {"measurement": "Hepatotoxicity (granulomatous hepatitis)", "setting": "[7]", "value": 0}, {"measurement": "Hepatotoxicity (acute)", "setting": "[8]", "value": 0, "unit": "%"}, {"measurement": "Hepatotoxicity (chronic liver disease)", "setting": "[9]", "value": 0}, {"measurement": "Hepatotoxicity (steatosis)", "setting": "[10]", "value": 0}, {"measurement": "Hepatotoxicity (association with vascular disease)", "setting": "[11]", "value": 0}, {"measurement": "Hepatotoxicity (severe hepatitis)", "setting": "[12]", "value": 0}, {"measurement": "Hepatotoxicity (moderate)", "setting": "[13]", "value": 23.5, "unit": "%"}, {"measurement": "Hepatotoxicity (moderate)", "setting": "[14]", "value": 1}]}, {"smiles": "CC(=O)OCOC(=O)C1=C(COC(N)=O)SC2[C@H]([C@H](C)O)C(=O)N12", "note": "(some centres undefined)", "values": [{"measurement": "Hepatotoxicity (malignant tumour)", "setting": "[1]", "value": 0}, {"measurement": "Hepatotoxicity (choleostasis)", "setting": "[2]", "value": 0}, {"measurement": "Hepatotoxicity (cytolytic)", "setting": "[3]", "value": 0}, {"measurement": "Hepatotoxicity (acute)", "setting": "[4]", "value": 0}, {"measurement": "Hepatotoxicity (cirrhosis)", "setting": "[5]", "value": 0}, {"measurement": "Hepatotoxicity (benign tumour)", "setting": "[6]", "value": 0}, {"measurement": "Hepatotoxicity (granulomatous hepatitis)", "setting": "[7]", "value": 0}, {"measurement": "Hepatotoxicity (acute)", "setting": "[8]", "value": 0, "unit": "%"}, {"measurement": "Hepatotoxicity (chronic liver disease)", "setting": "[9]", "value": 0}, {"measurement": "Hepatotoxicity (steatosis)", "setting": "[10]", "value": 0}, {"measurement": "Hepatotoxicity (association with vascular disease)", "setting": "[11]", "value": 0}, {"measurement": "Hepatotoxicity (severe hepatitis)", "setting": "[12]", "value": 0}, {"measurement": "Hepatotoxicity (moderate)", "setting": "[13]", "value": 20, "unit": "%"}, {"measurement": "Hepatotoxicity (moderate)", "setting": "[14]", "value": 25}]}, {"smiles": "CO[C@H]1O[C@@H]2O[C@@]3(C)CC[C@H]4[C@H](C)CC[C@@H]([C@H]1C)[C@@]24OO3", "values": [{"measurement": "Hepatotoxicity (malignant tumour)", "setting": "[1]", "value": 0}, {"measurement": "Hepatotoxicity (choleostasis)", "setting": "[2]", "value": 0}, {"measurement": "Hepatotoxicity (cytolytic)", "setting": "[3]", "value": 0}, {"measurement": "Hepatotoxicity (acute)", "setting": "[4]", "value": 0}, {"measurement": "Hepatotoxicity (cirrhosis)", "setting": "[5]", "value": 0}, {"measurement": "Hepatotoxicity (benign tumour)", "setting": "[6]", "value": 0}, {"measurement": "Hepatotoxicity (granulomatous hepatitis)", "setting": "[7]", "value": 0}, {"measurement": "Hepatotoxicity (acute)", "setting": "[8]", "value": 0, "unit": "%"}, {"measurement": "Hepatotoxicity (chronic liver disease)", "setting": "[9]", "value": 0}, {"measurement": "Hepatotoxicity (steatosis)", "setting": "[10]", "value": 0}, {"measurement": "Hepatotoxicity (association with vascular disease)", "setting": "[11]", "value": 0}, {"measurement": "Hepatotoxicity (severe hepatitis)", "setting": "[12]", "value": 0}, {"measurement": "Hepatotoxicity (moderate)", "setting": "[13]", "value": 17, "unit": "%"}, {"measurement": "Hepatotoxicity (moderate)", "setting": "[14]", "value": 1}]}]}
